Laboratory results taken from patent US9149044B2, “Pesticidal compositions” (Syngenta Participations AG, priority 2011, dated 2015).

System: Heterodera glycines race 3
Experiment: Soybean pot test, cyst count as indicator of nematode control
Assay type: in vivo
Details: 28 days after planting
Excerpt: A plug measuring 0.75 inch (approximately 1.9 cm) in diameter and 1 inch (approx. 2.5 cm) in depth was removed from each 3 inch diameter×8 inch deep (approx. 7.6×20 cm) plastic pot. Five thousand Heterodera glycines race 3 eggs were placed at the bottom of the plug hole. A soybean variety 3.6-B6 seed was placed on top of the inoculum. Six replicates were made for each treatment group. In addition to untreated control, the treatment groups were Pasteuria nishizawae, Bacillus firmus, and Pasteuria nishizawae+Bacillus firmus.
Bacillus firmus came applied as a seed treatment (available commercially, for example, from Bayer Crop Science as VOTIVO product, PONCHO/VOTIVO, having Bacillus firmus concentration at least 2×10^9 cfu/ml+clothianidin (0.13 mg/seed)). A point application containing Pasteuria nishizawae (approximately 5.0×10^9 spores) was applied directly to the seed in the pot. The plug was replaced in the hole to cover the seed. The soil was Vero Beach (Florida, USA) top soil, pH 5.9 (approximate composition sand 93%, silt 2%, clay 2%, organic matter 3%).
At 28 days after planting, plant height was measured and plants were removed from the pots. Soil was gently rinsed from the roots. The rinsed roots were placed in a 20 mesh over a 60 mesh sieve. The root system was blasted with water to remove cyst nematode females. The 20 mesh sieve was removed and the cysts were washed to the bottom of the 60 mesh sieve. The cysts were rinsed into a tube for counting under a stereoscope. Later the dry root weights were measured.

Pasteuria nishizawae
Average Cyst Count (5000 eggs per pot, average of six replicates): 366
Cyst Count (5000 eggs per pot, cysts washed from roots, average of six replicates): 366
% Control Observed (from cyst count versus untreated control): 2.40%
